The numbers were not newly measured in patent publication US20100047195A1, “LIP BALM AND METHOD OF TREATING LIP CONDITIONS” (priority 2007, published 2010), which cites them from elsewhere.

Molecules are shown by their SMILES.

The conditions of the series: oral isotretinoin; estimated.

Consider `CC1=C(/C=C/C(C)=C/C=C/C(C)=C\C(=O)O)C(C)(C)CCC1` [isotretinoin, 13-cis-retinoic acid], for which the “patients treated who develop cheilitis (cracking, soreness and other inflammation of the lips)” value is on record as “over 90%”.
